The target in one assay is T1, ΔConeOnly-StNrdD (Streptococcus thermophilus, UniProt A0A3G6JS83).
T1 construct: gene DF198_09700; cone domain removed (residues 1 to 115 deleted), connector kept; N-terminal His6 with thrombin site (pET15b); expressed in E. coli T7 Express
T1 sequence (A0A3G6JS83 116-734): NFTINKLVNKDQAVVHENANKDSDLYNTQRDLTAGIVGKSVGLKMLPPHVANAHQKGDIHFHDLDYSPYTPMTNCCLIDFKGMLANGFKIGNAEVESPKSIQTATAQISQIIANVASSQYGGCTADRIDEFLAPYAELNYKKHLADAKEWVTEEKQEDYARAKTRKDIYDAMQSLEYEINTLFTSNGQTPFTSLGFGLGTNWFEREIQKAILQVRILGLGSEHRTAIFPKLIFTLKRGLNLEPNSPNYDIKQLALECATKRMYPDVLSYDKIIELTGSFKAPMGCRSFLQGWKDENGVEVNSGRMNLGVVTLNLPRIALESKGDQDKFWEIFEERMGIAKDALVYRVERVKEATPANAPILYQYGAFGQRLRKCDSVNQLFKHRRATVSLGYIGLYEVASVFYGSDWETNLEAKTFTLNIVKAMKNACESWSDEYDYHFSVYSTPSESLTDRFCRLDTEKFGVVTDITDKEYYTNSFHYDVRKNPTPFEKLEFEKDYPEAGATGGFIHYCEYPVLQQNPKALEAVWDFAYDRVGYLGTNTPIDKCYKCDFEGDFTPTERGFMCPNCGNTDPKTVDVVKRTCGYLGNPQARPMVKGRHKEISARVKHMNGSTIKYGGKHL
The assay can be described thus: LC-MS/MS of dGTP product after glycyl radical activation. The format is biochemical. As to conditions: 1 mM GTP, 1 mM TTP, no activity effector; 0.15 µM glycyl radical; 37 °C, 120 s; anaerobic.

The target in another assay is T2, StNrdD (WT-StNrdD) (Streptococcus thermophilus, UniProt A0A3G6JS83).
T2 construct: gene DF198_09700; full length, 734 residues, N-terminal His6 with thrombin site (pET15b), tag cleaved before crystallization; expressed in E. coli T7 Express; dimer; Cys400 thiyl, Gly697 glycyl radical
T2 sequence (A0A3G6JS83 1-734): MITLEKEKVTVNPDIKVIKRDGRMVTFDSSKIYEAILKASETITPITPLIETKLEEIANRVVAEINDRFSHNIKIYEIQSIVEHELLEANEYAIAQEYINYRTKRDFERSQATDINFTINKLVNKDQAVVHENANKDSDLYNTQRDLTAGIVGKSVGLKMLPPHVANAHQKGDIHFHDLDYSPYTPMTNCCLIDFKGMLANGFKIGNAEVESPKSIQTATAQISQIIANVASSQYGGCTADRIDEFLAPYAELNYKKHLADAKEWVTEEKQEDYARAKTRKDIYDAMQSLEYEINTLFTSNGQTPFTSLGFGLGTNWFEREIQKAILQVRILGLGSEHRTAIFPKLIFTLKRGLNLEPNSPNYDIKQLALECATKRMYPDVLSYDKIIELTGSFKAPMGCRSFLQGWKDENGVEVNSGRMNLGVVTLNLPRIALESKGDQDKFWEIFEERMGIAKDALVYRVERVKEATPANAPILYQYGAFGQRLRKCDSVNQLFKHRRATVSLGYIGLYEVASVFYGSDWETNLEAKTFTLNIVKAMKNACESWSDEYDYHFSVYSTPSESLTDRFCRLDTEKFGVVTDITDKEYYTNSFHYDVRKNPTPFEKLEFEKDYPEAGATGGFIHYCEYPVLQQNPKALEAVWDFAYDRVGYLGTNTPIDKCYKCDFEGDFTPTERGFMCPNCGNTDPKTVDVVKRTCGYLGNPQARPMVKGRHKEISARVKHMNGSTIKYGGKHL
Briefly: cryo-EM ([…] Å). As to conditions: allosteric specificity effector site at dimer interface; seen with both ATP and dATP; 1 mM TTP, 1 mM GTP, pH 7.5. The format is binding.

With `Nc1nc2c(ncn2[C@@H]2O[C@H](COP(=O)(O)OP(=O)(O)OP(=O)(O)O)[C@@H](O)[C@H]2O)c(=O)[nH]1` [GTP], the “LC-MS/MS of dGTP product after glycyl radical activation” value at ΔConeOnly-StNrdD is listed as “GTP turnover proceeds in the absence of allosteric inhibitor dATP, although at a lower yield”.
With `Cc1cn([C@H]2C[C@H](O)[C@@H](COP(=O)(O)OP(=O)(O)OP(=O)(O)O)O2)c(=O)[nH]c1=O` [TTP], the “cryo-EM (3.6 Å)” value on StNrdD (WT-StNrdD) is given as “both structures have density for the TTP specificity effector bound at the dimer interface”.

Values taken from article PMC12662201, “How ATP and dATP reposition class III ribonucleotide reductase cone domains to regulate enzyme activity” (Science Advances, 2025).
